Laboratory results from PubChem BioAssay AID1902 (Broad Institute, 2009).
Calls of active or inactive are those of the source.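 How the source made its calls: active means EC50 no more than a set limit of log units above the highest dose; inactive means the rest.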

What follows are compounds tested against S. pyogenes SKKanGAS, kanamycin survival, BacTiterGlo, 6 h (assay: S. pyogenes SKKanGAS kanamycin growth inhibitors – SKKanGAS strain, luminescence, dose confirmation, streptokinase promoter inhibitor project, dose response (AID 1902);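 further: lower survival reflects blocked streptokinase promoter driving kanamycin resistance gene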).

Row | Structure (SMILES) | EC50
1 | COc1ccc(/C=N/NC(=O)Cc2csc(Nc3cccc(C(F)(F)F)c3)n2)cc1C | 3.95 µM
2 | Cn1ncc2c(Nc3cccc(Cl)c3)nc(Nc3cccc(Cl)c3)nc21 | 2.67 µM
3 | CC(=O)c1ccc(NC(=S)Nc2ccc(Br)c(Cl)c2)cc1 | 6.2 µM
4 | COc1ccc(C(=O)NC(=S)NNC(=O)c2ccccc2C)cc1 | 1.49 µM
5 | O=C1C(Nc2ccc(O)cc2)=C/C(=N/S(=O)(=O)c2cccs2)c2ccccc21 | 1.97 µM
6 | CCOC(=O)c1sc2nc(Cc3ccc(Cl)cc3)[nH]c(=S)c2c1C | 3.21 µM
7 | Fc1ccc(CSc2nc3ccccc3[nH]2)c2ccccc12 | 6.11 µM
8 | CCOC(=O)c1ccc(NC(=O)c2nc[nH]c2C(=O)NCCCCCNC(=O)OC(C)(C)C)cc1 | 2.83 µM
9 | CC(=O)NS(=O)(=O)c1ccc(N=c2ssc3c2-c2ccc(C)cc2NC3(C)C)cc1 | 2.92 µM
10 | C=CCN1C(=O)/C(=C/c2ccc(OC(C)=O)c(OCC)c2[N+](=O)[O-])SC1=S | 1.62 µM
11 | COc1ccc(NC(=O)CSc2ccc3nnc(-c4ccccn4)n3n2)c(OC)c1 | > 15 µM (inactive)
12 | O=C1c2[nH]nc(-c3ccccc3O)c2C(c2cccc(Cl)c2)N1Cc1ccco1 (stereo not drawn) | 7.4 µM
13 | N#C/C(=C(/O)c1ccc([N+](=O)[O-])o1)c1nc2ccccc2[nH]1 | 2.05 µM
14 | COC(=O)C1=C(C)NC2=C(C(=O)c3ccccc32)C1c1ccc(-c2ccc(C(=O)O)cc2)o1 (stereo not drawn) | 2.76 µM
15 | COc1cccc(CC(=O)OCC(=O)Nc2nnc(-c3ccccc3)o2)c1 | 4.58 µM
16 | CC(=O)Oc1c(-c2ccc(Br)o2)oc2ccccc2c1=O | 3.34 µM
17 | CS(=O)(=O)c1ccc([C@@H](O)[C@@H](CO)NC(=O)C(Cl)Cl)cc1 | 0.74 µM
18 | N#C/C(=C(/O)COc1ccccc1)c1nc2ccccc2s1 | 14.5 µM
19 | CC(C)(C)c1cc(NCc2ccccn2)n2ncc(-c3ccc(Cl)cc3)c2n1 | 1.34 µM
20 | COc1cc(NS(=O)(=O)c2ccc3ccccc3c2)c2ncccc2c1 | 1.08 µM
21 | CCCn1cc(CN2CCC(n3nccc3NC(=O)c3ccccc3)CC2)c(C)n1 | > 15 µM (inactive)
22 | Cc1cc(C)c2nc(N3C(=O)C(O)=C(C(=O)c4ccco4)C3c3ccco3)sc2c1 (stereo not drawn) | 2.12 µM

Row | Structure (SMILES) | EC50
23 | N=C(N)c1ccc(OCCCCCOc2ccc(C(=N)N)cc2)cc1 | < 0.06 µM
24 | CCCn1c(NC(=O)C23CC4CC(CC(O)(C4)C2)C3)nc2ccccc21 | 3.09 µM
25 | Cc1ccccc1NS(=O)(=O)c1ccc(C)c(C(=O)N2CCOCC2)c1 | > 15 µM (inactive)
26 | COC(=O)c1cc(S(=O)(=O)n2nc(C)c(Br)c2C)c(Cl)cc1Cl | 1.01 µM
27 | O=c1[nH]c(NNC(=S)NC2CCCCC2)nc2c1C1(CCCC1)Cc1ccccc1-2 | 1.35 µM
28 | CCOc1ccc(N(C)c2ccc(/C=C3/SC(=S)NC3=O)cc2)cc1 | 4.3 µM
29 | COc1cccc(N=Nc2c(N)[nH]n3c(=O)cc(-c4ccccc4)nc23)c1 | 1.79 µM
30 | CCCCCCCCCCCCCCCC[N+](C)(C)C | 3.02 µM
31 | O=C(c1cc(-c2ccccc2)nc2ccccc12)N1CCN(c2ccccc2O)CC1 | 6.96 µM
32 | Oc1c(Cl)cc(Cl)cc1/C=N/NC(=S)NC1CC2C=CC1C2 (stereo not drawn) | 0.177 µM
33 | CCOC(=O)c1ccc(Oc2cn[nH]c2-c2ccc(OCC(=O)NN)cc2O)cc1 | 0.357 µM
34 | Cc1cccc(N=C2NN=C(c3c(C)[nH]c4ccccc34)CS2)c1 | 3.02 µM
35 | Cc1cccc(NC(=O)c2ccc(S(=O)(=O)N(C)CC3CCCO3)cc2)c1C (stereo not drawn) | > 15 µM (inactive)
36 | CCOC(=O)Nc1ccc(OCc2nnc3c4ccccc4c(C)nn23)cc1 | < 0.06 µM
37 | CCc1nc(SCC(=O)Nc2ccccc2OC)c2c(C)c(C)sc2n1 | 6.58 µM
38 | Cc1sc2cc3c(c(C(=O)c4ccccc4)[n+]2c1C)-c1cccc2cccc-3c12 | 6.66 µM
39 | COc1cccc(/C=N/Nc2cc(N3CCOCC3)ncn2)c1O | 7.64 µM
40 | Oc1ccccc1/C=N/NC(=S)NC1CC2CCC1C2 (stereo not drawn) | 3.74 µM
41 | O=C(N/N=C/c1ccc([N+](=O)[O-])o1)c1ccc(NS(=O)(=O)c2cccs2)cc1 | 3.55 µM
42 | O=C(Cn1nc(CNc2ccc(Cl)cc2)[n+]2c1CCCCC2)c1ccc(Br)cc1 | 10.8 µM
43 | CCCCCCCCOC(=O)/C=C/c1c(C)[nH]c(=O)[nH]c1=O | 0.788 µM
